Data as given in US20120270884A1, “Methods of Treating Aneurysmal Dilatation, Blood Vessel Wall Weakness and Specifically Abdominal Aortic and Thoracic Aneurysm Using Matrix Metalloprotease-2 Inhibitors” (SYMPHONY EVOLUTION, INC., priority 2009, published 2012).

How the values were obtained:
Format in all cases: biochemical
[1] = molecular target: TACE (TNF-alpha converting enzyme, ADAM-17) (Homo sapiens, UniProt P78536); assay: In vitro metalloprotease inhibition, TACE
Description: (§1) Blank cells indicate lack of data only.

[2] = molecular target: T1, MMP-1 (Fibroblast collagenase) (Homo sapiens, UniProt P03956); assay: In vitro metalloprotease inhibition, MMP-1
T1 sequence (P03956 100-469): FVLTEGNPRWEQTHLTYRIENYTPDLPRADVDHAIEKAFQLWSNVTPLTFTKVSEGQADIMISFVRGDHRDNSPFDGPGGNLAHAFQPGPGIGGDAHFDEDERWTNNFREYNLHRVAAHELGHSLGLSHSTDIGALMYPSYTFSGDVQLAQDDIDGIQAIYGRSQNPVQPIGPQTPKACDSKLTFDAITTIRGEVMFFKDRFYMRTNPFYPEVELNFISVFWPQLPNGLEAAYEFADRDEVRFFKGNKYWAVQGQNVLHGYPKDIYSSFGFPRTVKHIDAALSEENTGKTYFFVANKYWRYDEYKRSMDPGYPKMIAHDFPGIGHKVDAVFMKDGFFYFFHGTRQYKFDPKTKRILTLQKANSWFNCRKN
Description: as §1

[3] = molecular target: T2, MMP-2 (72 kDa gelatinase, gelatinase A) (Homo sapiens, UniProt P08253); assay: In vitro metalloprotease inhibition, MMP-2
T2 sequence (P08253 110-660): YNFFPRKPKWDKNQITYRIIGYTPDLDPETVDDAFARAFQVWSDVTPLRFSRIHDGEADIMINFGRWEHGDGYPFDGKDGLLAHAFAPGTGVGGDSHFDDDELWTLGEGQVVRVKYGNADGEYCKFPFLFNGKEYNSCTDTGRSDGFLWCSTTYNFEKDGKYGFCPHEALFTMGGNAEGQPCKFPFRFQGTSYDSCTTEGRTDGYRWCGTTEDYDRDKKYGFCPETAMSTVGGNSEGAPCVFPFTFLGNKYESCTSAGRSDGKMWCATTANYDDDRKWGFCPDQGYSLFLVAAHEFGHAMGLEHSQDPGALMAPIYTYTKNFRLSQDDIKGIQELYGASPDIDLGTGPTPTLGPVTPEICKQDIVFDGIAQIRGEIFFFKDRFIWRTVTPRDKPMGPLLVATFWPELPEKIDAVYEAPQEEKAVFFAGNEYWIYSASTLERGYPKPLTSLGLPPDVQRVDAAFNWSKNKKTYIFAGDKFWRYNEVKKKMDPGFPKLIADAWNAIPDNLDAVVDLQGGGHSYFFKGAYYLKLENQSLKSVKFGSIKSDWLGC

MMP-3 (Stromelysin-1) = MMP-3 (Stromelysin-1) (Homo sapiens, UniProt P08254); assay: In vitro metalloprotease inhibition, MMP-3
Description: as §1

MMP-13 (collagenase-3) = MMP-13 (collagenase-3) (Homo sapiens, UniProt P45452); assay: In vitro metalloprotease inhibition, MMP-13

Sequence of MMP-3 (Stromelysin-1) (P08254 100-477, species assumed): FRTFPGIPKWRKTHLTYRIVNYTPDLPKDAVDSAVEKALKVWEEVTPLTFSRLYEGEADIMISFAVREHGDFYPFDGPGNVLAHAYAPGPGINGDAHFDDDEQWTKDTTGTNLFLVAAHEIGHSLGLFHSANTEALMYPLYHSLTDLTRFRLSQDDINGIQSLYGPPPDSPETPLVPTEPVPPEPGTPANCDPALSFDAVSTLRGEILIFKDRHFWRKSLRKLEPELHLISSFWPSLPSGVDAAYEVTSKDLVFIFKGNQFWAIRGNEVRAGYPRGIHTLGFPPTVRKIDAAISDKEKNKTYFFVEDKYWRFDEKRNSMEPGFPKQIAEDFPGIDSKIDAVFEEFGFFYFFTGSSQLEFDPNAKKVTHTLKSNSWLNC
Sequence of TACE (TNF-alpha converting enzyme, ADAM-17) (P78536 215-824): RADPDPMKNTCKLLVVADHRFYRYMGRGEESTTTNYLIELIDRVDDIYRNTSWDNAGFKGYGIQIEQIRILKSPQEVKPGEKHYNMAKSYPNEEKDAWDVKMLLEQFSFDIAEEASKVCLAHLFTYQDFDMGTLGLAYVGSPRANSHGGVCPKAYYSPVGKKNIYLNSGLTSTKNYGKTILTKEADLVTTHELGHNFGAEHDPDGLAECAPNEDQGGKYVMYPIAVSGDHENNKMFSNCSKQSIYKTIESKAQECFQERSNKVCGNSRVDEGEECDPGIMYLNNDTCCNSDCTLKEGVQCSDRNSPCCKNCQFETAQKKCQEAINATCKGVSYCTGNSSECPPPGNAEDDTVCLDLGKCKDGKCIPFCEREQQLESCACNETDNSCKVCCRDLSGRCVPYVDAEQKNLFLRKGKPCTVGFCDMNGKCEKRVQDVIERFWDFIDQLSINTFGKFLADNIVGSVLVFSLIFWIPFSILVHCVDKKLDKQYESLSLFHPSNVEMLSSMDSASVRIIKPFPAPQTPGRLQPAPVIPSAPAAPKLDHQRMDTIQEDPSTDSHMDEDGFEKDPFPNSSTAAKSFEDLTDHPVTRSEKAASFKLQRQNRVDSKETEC

Row | SMILES | IC50 [1] [nM] | IC50 [2] [nM] | IC50 [3] [nM] | IC50 (MMP-3 (Stromelysin-1)) [nM] | IC50 (MMP-13 (collagenase-3)) [nM]
1 | O=C(NO)[C@H]1CN(S(=O)(=O)NC(=O)N2CCOCC2)CCN1S(=O)(=O)c1cc(F)c(Oc2ccc(Cl)cc2)c(F)c1 [Entry 38] | 50 to 1000 | 1000 to 20000 | < 50 | < 50 | < 50
2 | O=C(NO)[C@H]1CN(C(=O)c2cccnc2)CCN1S(=O)(=O)c1cc(F)c(Oc2ccc(Cl)cc2)c(F)c1 [Entry 59] | 50 to 1000 | 1000 to 20000 | < 50 | 50 to 1000 | < 50
3 | O=C(NO)[C@H]1CN(S(=O)(=O)NC(=O)N2CCCCC2)CCN1S(=O)(=O)c1cc(F)c(Oc2ccc(Cl)cc2)c(F)c1 [Entry 37] | 50 to 1000 | 1000 to 20000 | < 50 | < 50 | < 50
4 | O=C(O)CN1CCN(S(=O)(=O)c2cc(F)c(Oc3ccc(Cl)cc3)c(F)c2)[C@@H](C(=O)NO)C1 [Entry 63] |  | > 20000 | 50 to 1000 | 1000 to 20000 | 50 to 1000
5 | CS(=O)(=O)N1CCN(S(=O)(=O)c2cc(F)c(Oc3ccc(Cl)cc3)c(F)c2)[C@@H](C(=O)NO)C1 [Entry 28] |  | 50 to 1000 | < 50 | 50 to 1000 | < 50
6 | N#Cc1ccc(Oc2ccc(S(=O)(=O)N3CCN(C(=O)N4CCOCC4)C[C@@H]3C(=O)NO)cc2F)cc1 [Entry 7] |  | 50 to 1000 | < 50 | < 50 | < 50
7 | CNC(=O)CN1CCN(S(=O)(=O)c2cc(F)c(Oc3ccc(Cl)cc3)c(F)c2)[C@@H](C(=O)NO)C1 [Entry 19] |  | > 20000 | < 50 | 50 to 1000 | < 50
8 | COCCOC(=O)N1CCN(S(=O)(=O)c2ccc(Oc3ccc(F)cc3)cc2)[C@@H](C(=O)NO)C1 [Entry 1] |  | < 50 | < 50 | < 50 | < 50
9 | CC(C)(C)OC(=O)N1CCN(S(=O)(=O)c2cc(F)c(Oc3ccc(F)cc3)c(F)c2)[C@@H](C(=O)NO)C1 [Entry 9] |  | 1000 to 20000 | < 50 | 1000 to 20000 | 1000 to 20000
10 | CN(C)c1ccc2c(S(=O)(=O)N3CCN(S(=O)(=O)c4cc(F)c(Oc5ccc(Cl)cc5)c(F)c4)[C@@H](C(=O)NO)C3)cccc2c1 [Entry 49] |  | > 20000 | < 50 | 50 to 1000 | < 50
11 | COCCOC(=O)N1CCN(S(=O)(=O)c2ccc(Oc3ccc4c(c3)CCCC4)nc2)[C@@H](C(=O)NO)C1 [Entry 64] |  | 50 to 1000 | < 50 | < 50 | < 50
12 | O=C(NO)[C@H]1CN(CC(=O)N2CCCC2)CCN1S(=O)(=O)c1cc(F)c(Oc2ccc(Cl)cc2)c(F)c1 [Entry 21] |  | > 20000 | < 50 | 1000 to 20000 | 50 to 1000
13 | COCCOC(=O)N1CCN(S(=O)(=O)c2cc(F)c(Oc3ccccc3)c(F)c2)[C@@H](C(=O)NO)C1 [Entry 40] |  | 1000 to 20000 | < 50 | 50 to 1000 | < 50
14 | CCOC(=O)N1CCN(CCS(=O)(=O)N2CCN(S(=O)(=O)c3cc(F)c(Oc4ccc(Cl)cc4)c(F)c3)[C@@H](C(=O)NO)C2)CC1 [Entry 56] |  | 1000 to 20000 | < 50 | 50 to 1000 | < 50
15 | COCCOC(=O)N1CCN(S(=O)(=O)c2ccc(Oc3ccc(F)cc3)c(F)c2)[C@@H](C(=O)NO)C1 [Entry 3] |  | 50 to 1000 | < 50 | 1000 to 20000 | < 50
16 | O=C(NO)[C@H]1CN(C(=O)OCc2ccccc2)CCN1S(=O)(=O)c1cc(F)c(Oc2ccc(Cl)cc2)c(F)c1 [Entry 32] |  | 1000 to 20000 | < 50 | 50 to 1000 | < 50
17 | O=C(NO)[C@H]1CN(C(=O)Cc2ccncc2)CCN1S(=O)(=O)c1cc(F)c(Oc2ccc(Cl)cc2)c(F)c1 [Entry 52] |  | 1000 to 20000 | < 50 | 1000 to 20000 | < 50
18 | O=C(NO)[C@H]1CN(S(=O)(=O)CCN2CCOCC2)CCN1S(=O)(=O)c1cc(F)c(Oc2ccc(Cl)cc2)c(F)c1 [Entry 57] |  | > 20000 | 50 to 1000 | 1000 to 20000 | 50 to 1000
19 | O=C(NO)[C@H]1CN(S(=O)(=O)c2cccc3cnccc23)CCN1S(=O)(=O)c1cc(F)c(Oc2ccc(Cl)cc2)c(F)c1 [Entry 48] |  | > 20000 | < 50 | 50 to 1000 | < 50
20 | O=C(NO)[C@H]1CN(S(=O)(=O)Cc2cc(Cl)cc(Cl)c2)CCN1S(=O)(=O)c1cc(F)c(Oc2ccc(Cl)cc2)c(F)c1 [Entry 61] |  | > 20000 | 1000 to 20000 | > 20000 | 1000 to 20000
21 | COCCN1CCN(S(=O)(=O)c2cc(F)c(Oc3ccc(Cl)cc3)c(F)c2)[C@@H](C(=O)NO)C1 [Entry 29] |  | 1000 to 20000 | < 50 | 50 to 1000 | < 50
22 | O=C(NO)[C@H]1CN(C(=O)c2ccc(-c3ccccc3)cc2)CCN1S(=O)(=O)c1cc(F)c(Oc2ccc(Cl)cc2)c(F)c1 [Entry 51] |  | 1000 to 20000 | 50 to 1000 | 1000 to 20000 | 50 to 1000
23 | CCOC(=O)N1CCN(CC(=O)N2CCN(S(=O)(=O)c3cc(F)c(Oc4ccc(Cl)cc4)c(F)c3)[C@@H](C(=O)NO)C2)CC1 [Entry 23] |  | > 20000 | < 50 | 1000 to 20000 | < 50
24 | COCCOC(=O)N1CCN(S(=O)(=O)c2ccc(Oc3ccc(Cl)cc3)c(F)c2)[C@@H](C(=O)NO)C1 [Entry 4] |  | 50 to 1000 | < 50 | < 50 | < 50
25 | CCCC(CCC)C(=O)N1CCN(S(=O)(=O)c2cc(F)c(Oc3ccc(Cl)cc3)c(F)c2)[C@@H](C(=O)NO)C1 [Entry 44] |  | > 20000 | < 50 | 1000 to 20000 | 50 to 1000
26 | CN1CCN(CCS(=O)(=O)N2CCN(S(=O)(=O)c3cc(F)c(Oc4ccc(Cl)cc4)c(F)c3)[C@@H](C(=O)NO)C2)CC1 [Entry 55] |  | 1000 to 20000 | < 50 | 50 to 1000 | < 50
27 | O=C(NO)[C@H]1CN(C(=O)OCCN2CCCCC2)CCN1S(=O)(=O)c1cc(F)c(Oc2ccc(Cl)cc2)c(F)c1 [Entry 27] |  | 1000 to 20000 | < 50 | 50 to 1000 | < 50
28 | CN1CCC(OC(=O)N2CCN(S(=O)(=O)c3cc(F)c(Oc4ccc(Cl)cc4)c(F)c3)[C@@H](C(=O)NO)C2)CC1 [Entry 22] |  | 1000 to 20000 | < 50 | 50 to 1000 | < 50
29 | O=C(NO)[C@H]1CN(C(=O)Cc2cccnc2)CCN1S(=O)(=O)c1cc(F)c(Oc2ccc(Cl)cc2)c(F)c1 [Entry 47] |  | > 20000 | < 50 | 50 to 1000 | < 50
